Article doi:10.1101/2022.06.29.498063v1, “Molecular basis for the pheromone-mediated feeding preference of early-instar Mythimna separata larvae” (biorxiv, 2022)

Molecular target: T1, MsGOBP2 (Mythimna separata, UniProt A0A5H2NB15)
T1 construct: recombinant, pColdII vector, E. coli TransB, Ni-NTA purified, expression tag removed with enterokinase
T1 sequence (A0A5H2NB15 22-162): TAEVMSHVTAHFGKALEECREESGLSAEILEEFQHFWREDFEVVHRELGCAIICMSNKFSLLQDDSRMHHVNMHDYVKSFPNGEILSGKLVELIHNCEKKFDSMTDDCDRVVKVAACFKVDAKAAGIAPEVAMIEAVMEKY
Test: direct fluorescence titration with the probe
Format: binding
Conditions: 2 μM protein; protein dialyzed in 10 mM PBS pH 7.4; excitation 337 nm

c1ccc(Nc2cccc3ccccc23)cc1 [1-NPN]
K1-NPN: yielding the dissociation constants between the two proteins and 1-NPN (K1-NPN)
